test system: barnyard grass; assay: Test Example 3: herbicidal effect by foliage application, Wagner pot (Table 18, symbol H); type: in vivo, barnyard grass (Echinochloa crus-galli); settings: amount of applied herbicide 320 g/ha
Outline: (§1)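 Plants were sown in alluvial soil held under 0.1–0.5 cm standing water and grown 14 days in a greenhouse at 25–30 °C. An emulsifiable formulation, water-diluted to the set dose, was then sprayed onto the foliage, and effects were scored three weeks later using previously defined criteria.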

Compound	herbicidal effect on H: barnyard grass
CCCC(=O)Oc1c(C)nn(C)c(=O)c1-c1c(-c2ccccc2Cl)sc2ccc(F)cc12 [2-204]	4 (Herbicidal rate of 70% or more and less than 90%)

test system: Chinese sprangletop; assay: Test Example 3: herbicidal effect by foliage application, Wagner pot (Table 18, symbol D); type: in vivo, chinese sprangletop (Leptochloa chinensis); settings: amount of applied herbicide 320 g/ha
Outline: as §1

Compound	herbicidal effect on D: Chinese sprangletop
CCCC(=O)Oc1c(C)nn(C)c(=O)c1-c1c(-c2ccccc2Cl)sc2ccc(F)cc12 [2-204]	3 (Herbicidal rate of 40% or more and less than 70%)

test system: rice flat sedge; assay: Test Example 3: herbicidal effect by foliage application, Wagner pot (Table 18, symbol E); type: in vivo, rice flat sedge (Cyperus iria); settings: amount of applied herbicide 320 g/ha
Outline: as §1

Compound	herbicidal effect on E: rice flat sedge
CCCC(=O)Oc1c(C)nn(C)c(=O)c1-c1c(-c2ccccc2Cl)sc2ccc(F)cc12 [2-204]	3 (Herbicidal rate of 40% or more and less than 70%)

test system: southern crabgrass; assay: Test Example 4: herbicidal effect by soil treatment (Table 19, symbol F); type: in vivo, southern crabgrass (Digitaria ciliaris); settings: amount of applied herbicide 320 g/ha
Outline: (§2)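 Soil-surface application: an emulsion agent diluted with water to the predetermined dose is sprayed uniformly over seeds lying under roughly 1.5 cm of sterilized diluvial soil. Boxes stay in a greenhouse at 25° C. to 30° C. Three weeks later, each species is graded on previously defined criteria.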

Compound	F: southern crabgrass, herbicidal effect rating
CCCC(=O)Oc1c(C)nn(C)c(=O)c1-c1c(-c2ccccc2Cl)sc2ccc(F)cc12 [2-204]	0 (Herbicidal rate of 5% or less (almost no effect))

test system: green foxtail; assay: Test Example 4: herbicidal effect by soil treatment (Table 19, symbol G); type: in vivo, green foxtail (Setaria viridis); settings: amount of applied herbicide 320 g/ha
Outline: as §2

Compound	G: green foxtail, herbicidal effect rating
CCCC(=O)Oc1c(C)nn(C)c(=O)c1-c1c(-c2ccccc2Cl)sc2ccc(F)cc12 [2-204]	0 (Herbicidal rate of 5% or less (almost no effect))

test system: barnyard grass; assay: Test Example 4: herbicidal effect by soil treatment (Table 19, symbol H); type: in vivo, barnyard grass (Echinochloa crus-galli); settings: amount of applied herbicide 320 g/ha
Outline: as §2

Compound	H: barnyard grass, herbicidal effect rating
CCCC(=O)Oc1c(C)nn(C)c(=O)c1-c1c(-c2ccccc2Cl)sc2ccc(F)cc12 [2-204]	0 (Herbicidal rate of 5% or less (almost no effect))

test system: wild oat; assay: Test Example 4: herbicidal effect by soil treatment (Table 19, symbol I); type: in vivo, wild oat (Avena fatua); settings: amount of applied herbicide 320 g/ha
Outline: as §2

Compound	I: wild oat, herbicidal effect rating
CCCC(=O)Oc1c(C)nn(C)c(=O)c1-c1c(-c2ccccc2Cl)sc2ccc(F)cc12 [2-204]	0 (Herbicidal rate of 5% or less (almost no effect))

test system: blackgrass; assay: Test Example 4: herbicidal effect by soil treatment (Table 19, symbol J); type: in vivo, blackgrass (Alopecurus myosuroides); settings: amount of applied herbicide 320 g/ha
Outline: as §2

Compound	J: blackgrass, herbicidal effect rating
CCCC(=O)Oc1c(C)nn(C)c(=O)c1-c1c(-c2ccccc2Cl)sc2ccc(F)cc12 [2-204]	0 (Herbicidal rate of 5% or less (almost no effect))

test system: Italian ryegrass; assay: Test Example 4: herbicidal effect by soil treatment (Table 19, symbol K); type: in vivo, Italian ryegrass (Lolium multiflorum); settings: amount of applied herbicide 320 g/ha
Outline: as §2

Compound	K: Italian ryegrass, herbicidal effect rating
CCCC(=O)Oc1c(C)nn(C)c(=O)c1-c1c(-c2ccccc2Cl)sc2ccc(F)cc12 [2-204]	0 (Herbicidal rate of 5% or less (almost no effect))

test system: windgrass; assay: Test Example 4: herbicidal effect by soil treatment (Table 19, symbol L); type: in vivo, windgrass (Apera spica-venti); settings: amount of applied herbicide 320 g/ha
Outline: as §2

Compound	L: windgrass, herbicidal effect rating
CCCC(=O)Oc1c(C)nn(C)c(=O)c1-c1c(-c2ccccc2Cl)sc2ccc(F)cc12 [2-204]	0 (Herbicidal rate of 5% or less (almost no effect))

test system: velvetleaf; assay: Test Example 4: herbicidal effect by soil treatment (Table 19, symbol M); type: in vivo, velvetleaf (Abutilon theophrasti); settings: amount of applied herbicide 320 g/ha
Outline: as §2

Compound	M: velvetleaf, herbicidal effect rating
CCCC(=O)Oc1c(C)nn(C)c(=O)c1-c1c(-c2ccccc2Cl)sc2ccc(F)cc12 [2-204]	0 (Herbicidal rate of 5% or less (almost no effect))

test system: redroot pigweed; assay: Test Example 4: herbicidal effect by soil treatment (Table 19, symbol N); type: in vivo, redroot pigweed (Amaranthus retroflexus); settings: amount of applied herbicide 320 g/ha
Outline: as §2

Compound	N: redroot pigweed, herbicidal effect rating
CCCC(=O)Oc1c(C)nn(C)c(=O)c1-c1c(-c2ccccc2Cl)sc2ccc(F)cc12 [2-204]	2 (Herbicidal rate of 20% or more and less than 40%)

test system: lambsquarters; assay: Test Example 4: herbicidal effect by soil treatment (Table 19, symbol O); type: in vivo, lambsquarters (Chenopodium album); settings: amount of applied herbicide 320 g/ha
Outline: as §2

Compound	O: lambsquarters, herbicidal effect rating
CCCC(=O)Oc1c(C)nn(C)c(=O)c1-c1c(-c2ccccc2Cl)sc2ccc(F)cc12 [2-204]	0 (Herbicidal rate of 5% or less (almost no effect))

test system: chickweed; assay: Test Example 4: herbicidal effect by soil treatment (Table 19, symbol P); type: in vivo, common chickweed (Stellaria media); settings: amount of applied herbicide 320 g/ha
Outline: as §2

Compound	P: chickweed, herbicidal effect rating
CCCC(=O)Oc1c(C)nn(C)c(=O)c1-c1c(-c2ccccc2Cl)sc2ccc(F)cc12 [2-204]	3 (Herbicidal rate of 40% or more and less than 70%)

test system: persian speedwell; assay: Test Example 4: herbicidal effect by soil treatment (Table 19, symbol R); type: in vivo, Persian speedwell (Veronica persica); settings: amount of applied herbicide 320 g/ha
Outline: as §2

Compound	R: persian speedwell, herbicidal effect rating
CCCC(=O)Oc1c(C)nn(C)c(=O)c1-c1c(-c2ccccc2Cl)sc2ccc(F)cc12 [2-204]	3 (Herbicidal rate of 40% or more and less than 70%)

test system: southern crabgrass; assay: Test Example 5: herbicidal effect by foliage application, plastic box (Table 20, symbol F); type: in vivo, southern crabgrass (Digitaria ciliaris); settings: foliage application, 320 g/ha, evaluated three weeks after application
Outline: (§3)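 Sow seeds spot-wise in sterilized diluvial soil; cover with ~1.5 cm soil. Grow 14 days in greenhouse, 25° C. to 30° C. Spray foliage with emulsion diluted to predetermined amount. Rate effect after 3 weeks.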

Compound	herbicidal effect on F: southern crabgrass (criteria 0-5)
CCCC(=O)Oc1c(C)nn(C)c(=O)c1-c1c(-c2ccccc2Cl)sc2ccc(F)cc12 [2-204]	0 (Herbicidal rate of 5% or less (almost no effect))

test system: green foxtail; assay: Test Example 5: herbicidal effect by foliage application, plastic box (Table 20, symbol G); type: in vivo, green foxtail (Setaria viridis); settings: foliage application, 320 g/ha, evaluated three weeks after application
Outline: as §3

Compound	herbicidal effect on G: green foxtail (criteria 0-5)
CCCC(=O)Oc1c(C)nn(C)c(=O)c1-c1c(-c2ccccc2Cl)sc2ccc(F)cc12 [2-204]	5 (Herbicidal rate of 90% or more (almost completely withered))

test system: barnyard grass; assay: Test Example 5: herbicidal effect by foliage application, plastic box (Table 20, symbol H); type: in vivo, barnyard grass (Echinochloa crus-galli); settings: foliage application, 320 g/ha, evaluated three weeks after application
Outline: as §3

Compound	herbicidal effect on H: barnyard grass (criteria 0-5)
CCCC(=O)Oc1c(C)nn(C)c(=O)c1-c1c(-c2ccccc2Cl)sc2ccc(F)cc12 [2-204]	0 (Herbicidal rate of 5% or less (almost no effect))

test system: wild oat; assay: Test Example 5: herbicidal effect by foliage application, plastic box (Table 20, symbol I); type: in vivo, wild oat (Avena fatua); settings: foliage application, 320 g/ha, evaluated three weeks after application
Outline: as §3

Compound	herbicidal effect on I: wild oat (criteria 0-5)
CCCC(=O)Oc1c(C)nn(C)c(=O)c1-c1c(-c2ccccc2Cl)sc2ccc(F)cc12 [2-204]	3 (Herbicidal rate of 40% or more and less than 70%)

test system: blackgrass; assay: Test Example 5: herbicidal effect by foliage application, plastic box (Table 20, symbol J); type: in vivo, blackgrass (Alopecurus myosuroides); settings: foliage application, 320 g/ha, evaluated three weeks after application
Outline: as §3

Compound	herbicidal effect on J: blackgrass (criteria 0-5)
CCCC(=O)Oc1c(C)nn(C)c(=O)c1-c1c(-c2ccccc2Cl)sc2ccc(F)cc12 [2-204]	0 (Herbicidal rate of 5% or less (almost no effect))

test system: Italian ryegrass; assay: Test Example 5: herbicidal effect by foliage application, plastic box (Table 20, symbol K); type: in vivo, Italian ryegrass (Lolium multiflorum); settings: foliage application, 320 g/ha, evaluated three weeks after application
Outline: as §3

Compound	herbicidal effect on K: Italian ryegrass (criteria 0-5)
CCCC(=O)Oc1c(C)nn(C)c(=O)c1-c1c(-c2ccccc2Cl)sc2ccc(F)cc12 [2-204]	3 (Herbicidal rate of 40% or more and less than 70%)

test system: windgrass; assay: Test Example 5: herbicidal effect by foliage application, plastic box (Table 20, symbol L); type: in vivo, windgrass (Apera spica-venti); settings: foliage application, 320 g/ha, evaluated three weeks after application
Outline: as §3

Compound	herbicidal effect on L: windgrass (criteria 0-5)
CCCC(=O)Oc1c(C)nn(C)c(=O)c1-c1c(-c2ccccc2Cl)sc2ccc(F)cc12 [2-204]	3 (Herbicidal rate of 40% or more and less than 70%)

test system: velvetleaf; assay: Test Example 5: herbicidal effect by foliage application, plastic box (Table 20, symbol M); type: in vivo, velvetleaf (Abutilon theophrasti); settings: foliage application, 320 g/ha, evaluated three weeks after application
Outline: as §3

Compound	herbicidal effect on M: velvetleaf (criteria 0-5)
CCCC(=O)Oc1c(C)nn(C)c(=O)c1-c1c(-c2ccccc2Cl)sc2ccc(F)cc12 [2-204]	4 (Herbicidal rate of 70% or more and less than 90%)

test system: redroot pigweed; assay: Test Example 5: herbicidal effect by foliage application, plastic box (Table 20, symbol N); type: in vivo, redroot pigweed (Amaranthus retroflexus); settings: foliage application, 320 g/ha, evaluated three weeks after application
Outline: as §3

Compound	herbicidal effect on N: redroot pigweed (criteria 0-5)
CCCC(=O)Oc1c(C)nn(C)c(=O)c1-c1c(-c2ccccc2Cl)sc2ccc(F)cc12 [2-204]	5 (Herbicidal rate of 90% or more (almost completely withered))

test system: lambsquarters; assay: Test Example 5: herbicidal effect by foliage application, plastic box (Table 20, symbol O); type: in vivo, lambsquarters (Chenopodium album); settings: foliage application, 320 g/ha, evaluated three weeks after application
Outline: as §3

Compound	herbicidal effect on O: lambsquarters (criteria 0-5)
CCCC(=O)Oc1c(C)nn(C)c(=O)c1-c1c(-c2ccccc2Cl)sc2ccc(F)cc12 [2-204]	3 (Herbicidal rate of 40% or more and less than 70%)

test system: chickweed; assay: Test Example 5: herbicidal effect by foliage application, plastic box (Table 20, symbol P); type: in vivo, common chickweed (Stellaria media); settings: foliage application, 320 g/ha, evaluated three weeks after application
Outline: as §3

Compound	herbicidal effect on P: chickweed (criteria 0-5)
CCCC(=O)Oc1c(C)nn(C)c(=O)c1-c1c(-c2ccccc2Cl)sc2ccc(F)cc12 [2-204]	5 (Herbicidal rate of 90% or more (almost completely withered))

test system: persian speedwell; assay: Test Example 5: herbicidal effect by foliage application, plastic box (Table 20, symbol R); type: in vivo, Persian speedwell (Veronica persica); settings: foliage application, 320 g/ha, evaluated three weeks after application
Outline: as §3

Compound	herbicidal effect on R: persian speedwell (criteria 0-5)
CCCC(=O)Oc1c(C)nn(C)c(=O)c1-c1c(-c2ccccc2Cl)sc2ccc(F)cc12 [2-204]	5 (Herbicidal rate of 90% or more (almost completely withered))

Source: patent US20230085307A1, “PYRIDAZINONE COMPOUND AND HERBICIDE” (NISSAN CHEMICAL CORPORATION, priority 2019, published 2023)
